In publication PMC11387175, “Model informed dose regimen optimizing in development of leritrelvir for the treatment of mild or moderate COVID-19” (Frontiers in Pharmacology, 2024):

Columns and labels:
wild-type strain = system: wild-type strain; design: method as in Chen et al., 2024; conditions: ref Chen et al., 2024, read-out: concentration for 90% of maximal effect (EC90); cited from earlier work
wild strain of COVID-19 = assay: Target concentration needed to achieve EC90; type: cell-based, SARS-CoV-2
SARS-CoV-2 [1] = conditions: COVID-19 patients; 400 mg TID alone or 300 mg with 100 mg RTV BID; ref Wang et al., 2023; cited from earlier work
Delta variant = system: Delta variant; design: method as in Chen et al., 2024; conditions: ref Chen et al., 2024, read-out: concentration for 90% of maximal effect (EC90); cited from earlier work
[2] = Population pharmacokinetic analysis of phase I plasma concentrations (SAD, MAD, food effect); type: in vivo, human
Excerpt: (§1) The data obtained from a phase I clinical trial assessing the safety, tolerability, pharmacokinetics, and impact of food on leritrelvir Pharmacokinetics in healthy adult subjects (NCT05829551) were utilized in the PopPK analysis. The trial was designed as a randomized, double-blind, placebo-controlled study involving escalating single and multiple doses. The study design is outlined in Figure 1. In the single-ascending dose (SAD) arm, participants received leritrelvir tablets alone or with 100 mg of RTV. In the multiple-ascending dose (MAD) arm, leritrelvir tablets were given alone or with 100 mg RTV twice-daily on Days 1–4, followed by a single dose on Day 5, or thrice-daily on Days 1–4, followed by a single dose on Day 5. In the food consumption study arm, leritrelvir tablets alone or with 100 mg RTV were administered once during each dosing period after an overnight fast of at least 10 h or following a standard meal (high-fat, high-calorie) on Day 1. Each dosing period included a single administration, totaling two administrations, with a minimum interval of 8 days between periods.
FIGURE 1 Overall study design diagram. The study comprised three distinct components: a single-ascending dose study (SAD), a food effect study, and a multiple-ascending dose study (MAD). The SAD portion of the study was divided into two parts: Part 1 involved a dose escalation study of single-agent administration of RAY1216 tablets (S-1, S-2, and S-3), while Part 2 focused on the combination of RAY1216 tablets with 100 mg RTV (S-1R, S-2R, and S-3R). It should be noted that the S-2R and S-3R groups were initially planned but were ultimately not conducted due to dose-undetermined factors. The food effect study (FE) entails the administration of single doses of RAY1216 tablets at 800 mg (FE-1) and in combination with RTV at 500 mg (FE-2) to groups of 12 subjects. Group A undergoes a fasting administration cycle followed by a postprandial administration cycle, while Group B experiences the reverse order of administration cycles. The two cycles consist of crossover administration with a washout period lasting a minimum of 8 days. The MAD involves the co-administration of RAY1216 tablets (300 mg, 500 mg, and 700 mg) with 100 mg RTV in a BID dosing regimen, with escalating doses administered over 5 consecutive days and solely in the morning on the 5th day. Furthermore, a 400 mg RAY1216 single-agent TID dosing regimen administered over 5 consecutive days with administration limited to the morning on the 5th day.
Leritrelvir PK data was analyzed utilizing nonlinear mixed-effects modeling (NONMEM) ([Lindstrom and Bates, 1990]) and implemented with NONMEM version 7.5 (ICON Development Solutions. Ellicott City, Maryland, USA). The estimation algorithm used was the first-order conditional estimation method with interaction (FOCEI) of interindividual variability and residual variability. Perl Speaks NONMEM (PsN) version 4.2 (Uppsala University, Sweden) ([Lindbom et al., 2004]; [Lindbom et al., 2005]) and R version 4.1.2 were used as tools for executing NONMEM and summarizing outcomes. The model evaluated the impact of age, weight, body mass index, gender, albumin, alanine aminotransferase, aspartate aminotransferase, alkaline phosphatase, serum creatinine, creatinine clearance rate, total bilirubin, gamma-glutamyl transpeptidase, food consumption, and concomitant medication on the pharmacokinetics of leritrelvir. The final PopPK model was determined through a stepwise forward addition (p < 0.01) and backward deletion (p < 0.001) approach. The specifics of the model development process are outlined in the Supplementary Material. Evaluation of the final PopPK model was conducted using goodness-of-fit plots, prediction-corrected visual predictive check (pcVPC) ([Bergstrand et al., 2011]), bootstrapping ([Ette, 1997]), and shrinkage assessments ([Savic and Karlsson, 2009]). […]

[3] = system: SARS-CoV-2 βCoV/KOR/KCDC03/2020 strain; design: method as in Chen et al., 2023; conditions: Vero cells, ref Chen et al., 2023, cited from earlier work
Omicron BA.5 = system: Omicron BA.5; design: method as in Chen et al., 2024; conditions: ref Chen et al., 2024, read-out: concentration for 90% of maximal effect (EC90); cited from earlier work
SARS-CoV-2 [4] = system: SARS-CoV-2; design: method as in Zhan et al., 2024; conditions: ref Zhan et al., 2024, cited from earlier work
Alpha variant = system: Alpha variant; design: method as in Chen et al., 2024; conditions: ref Chen et al., 2024, read-out: concentration for 90% of maximal effect (EC90); cited from earlier work
[5] = Phase I safety and tolerability in healthy subjects; type: in vivo, human; conditions: monotherapy or in combination with ritonavir
Excerpt: as §1

Beta variant = system: Beta variant; design: method as in Chen et al., 2024; conditions: ref Chen et al., 2024, read-out: concentration for 90% of maximal effect (EC90); cited from earlier work
[6] = system: CYP1A2, CYP2B6, CYP2C8, CYP2C9, CYP2C19, and CYP2D6; assay: Metabolizing enzyme identification (in-house data); type: in vitro ADME
CYP3A = assay: Metabolizing enzyme identification (in-house data); type: in vitro ADME
Omicron BA.1 = system: Omicron BA.1; design: method as in Chen et al., 2024; conditions: ref Chen et al., 2024, read-out: concentration for 90% of maximal effect (EC90); cited from earlier work

SMILES: O=C(NC1CCCC1)C(=O)[C@H](C[C@@H]1CCNC1=O)NC(=O)[C@@H]1[C@H]2CCC[C@H]2CN1C(=O)[C@@H](NC(=O)C(F)(F)F)C1CCCCC1 [leritrelvir]
- EC90 (wild-type strain): 228 nM
- concentration needed to achieve EC90 (wild strain of COVID-19): 0.165 µg/mL
- duration of viral shedding (SARS-CoV-2 [1]): 166 h
- duration of viral shedding shorter than the placebo group (SARS-CoV-2 [1]): 4.2 days
- EC90 (Delta variant): 254 nM
- ratio of estimated clearance of leritrelvir to leritrelvir combined with RTV ([2]; 44.4/12.2): 3.64
- Absorption lag time, ALAG1: Bootstrapping Median (95% CI) ([2]; Comb (with RTV)): 0.166 (0.131–0.185) hr
- Absorption lag time, ALAG1: Population model estimates (%RSE) [95% CI] ([2]; Comb (with RTV)): 0.166 h
- Absorption rate, Ka: Bootstrapping Median (95% CI) ([2]; Comb (with RTV)): 0.170 (0.154–0.185) hr^-1
- Absorption rate, Ka: Population model estimates (%RSE) [95% CI] ([2]; Comb (with RTV)): 0.169 h⁻¹
- Clearance, CL: Bootstrapping Median (95% CI) ([2]; Comb (with RTV)): 12.2 (10.7–14.0) L/h
- Clearance, CL: Population model estimates (%RSE) [95% CI] ([2]; Comb (with RTV)): 12.2 L/h
- Duration of zero order absorption, D1: Bootstrapping Median (95% CI) ([2]; Comb (with RTV)): 0.0719 (0.0412–0.129) hr
- Duration of zero order absorption, D1: Population model estimates (%RSE) [95% CI] ([2]; Comb (with RTV)): 0.0684 h
- Intercompartment clearance between the central compartment and peripheral compartment, Q: Population model estimates (%RSE) [95% CI] ([2]; Comb (with RTV)): 0.611 L/h
- Volume distribution of peripheral compartment, Vc: Bootstrapping Median (95% CI) ([2]; Comb (with RTV)): 9.90 (7.68–13.2) L
- Volume distribution of peripheral compartment, Vc: Population model estimates (%RSE) [95% CI] ([2]; Comb (with RTV)): 9.78 L
- Volume distribution of peripheral compartment, Vp: Bootstrapping Median (95% CI) ([2]; Comb (with RTV)): 9.24 (6.93–12.8) L
- Volume distribution of peripheral compartment, Vp: Population model estimates (%RSE) [95% CI] ([2]; Comb (with RTV)): 9.30 L
- Absorption lag time, ALAG1: Bootstrapping Median (95% CI) ([2]; Mono (leritrelvir alone)): 0.188 (0.164–0.2) hr
- Absorption lag time, ALAG1: Population model estimates (%RSE) [95% CI] ([2]; Mono (leritrelvir alone)): 0.189 h
- Absorption rate, Ka: Bootstrapping Median (95% CI) ([2]; Mono (leritrelvir alone)): 0.292 (0.258–0.329) hr^-1
- Absorption rate, Ka: Population model estimates (%RSE) [95% CI] ([2]; Mono (leritrelvir alone)): 0.293 h⁻¹
- Clearance, CL: Bootstrapping Median (95% CI) ([2]; Mono (leritrelvir alone)): 44.2 (39.0–50.7) L/h
- Clearance, CL: Population model estimates (%RSE) [95% CI] ([2]; Mono (leritrelvir alone)): 44.4 L/h
- Duration of zero order absorption, D1: Bootstrapping Median (95% CI) ([2]; Mono (leritrelvir alone)): 0.078 (0.0359–0.171) hr
- Duration of zero order absorption, D1: Population model estimates (%RSE) [95% CI] ([2]; Mono (leritrelvir alone)): 0.0722 h
- Intercompartment clearance between the central compartment and peripheral compartment, Q: Population model estimates (%RSE) [95% CI] ([2]; Mono (leritrelvir alone)): 5.57 L/h
- Volume distribution of peripheral compartment, Vc: Bootstrapping Median (95% CI) ([2]; Mono (leritrelvir alone)): 18.7 (14.3–25.3) L
- Volume distribution of peripheral compartment, Vc: Population model estimates (%RSE) [95% CI] ([2]; Mono (leritrelvir alone)): 18.9 L
- Volume distribution of peripheral compartment, Vp: Bootstrapping Median (95% CI) ([2]; Mono (leritrelvir alone)): 58.2 (44.7–79.5) L
- Volume distribution of peripheral compartment, Vp: Population model estimates (%RSE) [95% CI] ([2]; Mono (leritrelvir alone)): 58.2 L
- Occasion variability of CL after multiple dose for 12 h, OC1.CL: Bootstrapping Median (95% CI) ([2]; cell for OC2.CL (96 h) is empty below): 18.7 (10–29.3) %
- Occasion variability of Vc after multiple dose for 12 h, OC1.Vc: Bootstrapping Median (95% CI) ([2]; cell for OC2.Vc (96 h) is empty below): 53.1 (34–82.5) %
- Proportional error of fed subjects within 2 h after dose: Bootstrapping Median (95% CI) ([2]; fed subjects, 0-2 h post-dosing): 70.5 (56.4–80.7) %
- Impact of food consumption on D1, D1.FED: Bootstrapping Median (95% CI) ([2]; fed vs fasted): 1.33 (1.22–1.49)
- Impact of food consumption on F1, F1.FED: Bootstrapping Median (95% CI) ([2]; fed vs fasted): 1.50 (1.25–1.82)
- Impact of food consumption on Ka, Ka.FED: Bootstrapping Median (95% CI) ([2]; fed vs fasted): 21.3 (10.8–41)
- Inter-individual variability CL: Bootstrapping Median (95% CI) ([2]; in vivo): 29.9 (25.5–34.6) %
- Inter-individual variability D1: Bootstrapping Median (95% CI) ([2]; in vivo): 152 (114–189) %
- Inter-individual variability Ka: Bootstrapping Median (95% CI) ([2]; in vivo): 25.3 (20.7–29.4) %
- Inter-individual variability Vc: Bootstrapping Median (95% CI) ([2]; in vivo): 79.8 (64.7–93.4) %
- Inter-individual variability Vp: Bootstrapping Median (95% CI) ([2]; in vivo): 43.6 (31–52.5) %
- Residual variability, Proportional residual: Bootstrapping Median (95% CI) ([2]; in vivo): 24.2 (22.4–26.1) %
- enhancement of exposure of leritrelvir by co-administration with RTV ([2]; with RTV vs alone): approximately 4 fold
- IC90 ([3]; read-out: 90% inhibitory concentration (IC90)): 92 nM
- IC50 ([3]; read-out: half maximal inhibitory concentration (IC50)): 36 nM
- EC90 (Omicron BA.5): 363 nM
- decrease in the SARS-CoV-2 viral load compared to the placebo (SARS-CoV-2 [4]; 400 mg TID, after a 3-day treatment period): approximately tenfold
- reduction in the time to sustained clinical recovery of all 11 COVID-19 symptoms compared to the placebo (SARS-CoV-2 [4]; oral 400 mg TID for 5 days): 20.3 h
- EC90 (Alpha variant): 351 nM
- Grade 3 or higher adverse events (AEs) [5]: No Grade 3 or higher adverse events (AEs) were reported
- changes in corrected QT (QTc) interval, pulse rate (PR) interval, heart rate, and blood pressure [5]: no meaningful changes were observed
- dose-dependent adverse reactions [5]: No dose-dependent adverse reactions were observed
- serious adverse events (SAEs) [5]: no serious adverse events (SAEs) occurred
- EC90 (Beta variant): 688 nM
- involvement of other CYP isoforms in metabolism [6]: minimal to no involvement
- role of CYP3A in metabolism (CYP3A): primary metabolizing enzyme
- EC90 (Omicron BA.1): 208 nM
